Experiments:
[1] = Liquid-liquid extraction of iodine from nitric acid solution into the organic solvent (distribution coefficient Dex, gamma spectrometry); assay type: physicochemical; conditions: equal volumes; for coefficient de distribution Dex de l'iode: first aqueous solution HNO3 3 mol/L, 125I 1500 kBq/L, ratio organic/aqueous iodine concentration at equilibrium
Procedure: Dans un premier temps, on met en contact, dans un tube en polypropylène étanche, une première solution aqueuse d'acide nitrique de concentration 3 mol/L contenant de l'iode ^125I, à une teneur de 1500 kBq/L avec une phase organique contenant du 1,2-NPHE. Les volumes de la solution aqueuse et de la phase organique sont égaux. L'ensemble est agité entre 10 minutes et une heure de façon douce par un dispositif approprié et ultérieurement mis dans une centrifugeuse pour une durée de 10 minutes à 4000 rpm.
On mesure le coefficient de distribution Dex de l'iode entre la première solution aqueuse et la phase organique, ce coefficient correspondant au rapport de la concentration en iode en phase organique à la concentration en iode en solution aqueuse à l'équilibre. Les concentrations en iode sont mesurées par spectrométrie gamma.

[2] = Re-extraction of iodine from the loaded organic solvent into aqueous sodium hydroxide solution (distribution coefficient Dréex); assay type: physicochemical
Text: Dans un deuxième temps, on met en contact la phase organique après extraction et après élimination de la première solution aqueuse, avec une deuxième solution aqueuse de réextraction, ladite solution étant une solution aqueuse de soude, les volumes de phase organique et de solution de réextraction étant sensiblement égaux.
Différents essais ont été effectués en faisant varier la concentration en soude de la deuxième solution aqueuse. On mesure les coefficients de distribution Dréex de l'iode, qui pour la réextraction correspond au rapport de la concentration en iode dans la seconde solution aqueuse à la concentration en iode en phase organique.

Compound	coefficient de distribution Dex de l'iode [1]	Dréex ([2]; soude 0,1 mol/L (10^-1 mol/L))	further results
CCCCCCOc1ccccc1[N+](=O)[O-] [1,2-NPHE, 1,2-nitrophénylhexyléther]	3	5,7	% d'extraction ([1]; corresponds to Dex of 3, HNO3 3 mol/L): 75%; Dréex ([2]; soude 0,5 mol/L): 6,6; Dréex ([2]; soude 0,6 mol/L): 7,6; Dréex ([2]; soude 1,5 mol/L): 6,6; Dréex ([2]; soude 1 mol/L): 7,0; Dréex ([2]; soude 2 mol/L, ratio aqueous/organic): 6,3; Dréex ([2]; soude 5.10^-2 mol/L): 5,5; Dréex ([2]; soude 5.10^-3 mol/L): 0,04; Dréex ([2]; soude 10^-1 mol/L with borohydrure de sodium 10^-3 mol/L): 5,8; Dréex ([2]; soude 10^-2 mol/L): 4,9; Dréex ([2]; soude 10^-3 mol/L): 0,02; Dréex ([2]; soude 10^-4 mol/L): 0
CCCCCC [hexane]	1,5	4,2	–
CCCCOC(C)=O [Acétate de butyle, acétate de butyle, reference compound]	6,6	0,014	–
CC(C)c1cccc(C(C)C)c1 [1,3-diisopropylbenzène]	2,3	2,3	–
CC(=O)CC(C)C [4-méthyl-1,2-pentanone, reference compound]	9,1	0,012	–
CCCCCC(=O)O [Acide Hexanoique, acide hexanoïque, reference compound]	4,1	0,04	–

Continued, in another order:

coefficient de distribution Dex de l'iode [1]	Dréex ([2]; soude 0,1 mol/L (10^-1 mol/L))	Compound	further results
2,9	1,7	CCCCCCCCOc1ccccc1[N+](=O)[O-] [1,2-NPOE, 1,2-nitrophényloctyléther]	–
2.7	11.6	CCCCCCc1ccccc1 [hexylbenzène]	–
8,7	0,023	CCCCCCCCO [Octanol, octanol, reference compound]	–
5,2	0,028	CC(C)CCCCCCCCCCO [Isotridécanol, isotridécanol, reference compound]	–

Reference: patent EP1455919B1, “IODINE EXTRACTION METHOD” (Commissariat à l'Énergie Atomique et aux Énergies …, priority 2001, dated 2003)
